Reference: PMC11945201, “Enhancing the Oral Bioavailability of Glutathione Using Innovative Analogue Approaches” (Pharmaceutics, 2025)
In brackets after ≈: the same amount, converted by molar mass.

How the values were obtained:
[1] = Pharmacokinetic study after IV injection or oral gavage; format: in vivo, male Sprague Dawley rat; settings: for AUC / bioavailability / half-life: male, plasma; for AUC / bioavailability: Sprague-Dawley; for AUC / half-life: 75 mg per rat; for AUC: AUC0-48, mean ± SD, n = 4; for bioavailability: rat, po, 75 mg; for half-life: read-out: plasma t½
Procedure: Pharmacokinetic studies were conducted using a male Sprague Dawley rat model. […] The animal experiments were performed in China, complying with the guide for care and use of laboratory animals. […] The collected blood samples were centrifuged at 7104× g for 5 min, and the plasma was stored at -70 °C until analysis. The plasma protein was precipitated by the addition of 1 mL of ACN, which was then vortexed for 1 min and centrifuged at 30,065× g for 15 min. […] The 1.70 concentration for each group (oral/IV) was determined using a modified LC-MS method adapted from the GSH protocol. Briefly, blood samples containing 1.70 were analysed separately by positive mode LC-MS using an Agilent 1100 series HPLC (Agilent Technology, Inc., Santa Clara, CA, USA) coupled with an Agilent 6530 Accurate Mass Q-TOF LC/MS (Agilent Technology, Inc., Santa Clara, CA, USA), which was equipped with a dual jet stream electrospray ionisation source. Chromatographic separation was achieved on a Zorbax SB C18 column (5 μm, 3 × 150 mm) maintained at 40 °C. […] The flow rate was set at 0.5 mL/min with an injection volume of 8 μL. Mass spectrometer settings were configured for m/z transitions of 319.1→215.2, with a fragmentor voltage of 180 V. The instrument parameters were as follows: a gas flow of 10 L/min, a gas temperature of 275 °C, a sheath gas flow of 12 L/min, a sheath gas temperature of 300 °C, a nebuliser pressure of 40 psi, a capillary voltage of 3000 V, and a nozzle voltage of 500 V. This method was developed and validated through triplicate linearity studies at concentrations ranging from 30 to 5000 ng/mL according to the International Conference on Harmonization (ICH) guidelines. Data were acquired and analysed using Agilent Mass Hunter Software (version A.02.17).

[2] = UV rescue of UVA-irradiated fibroblast cells (MTT); format: cell-based; settings: peptide 0.0325 mmolL^−1, 24 h, no UV, mean ± SD, n = 6, read-out: % Cell Viability (no UV)
Procedure: Fibroblast cells were seeded into 96-well plates at a density of 10,000 cells per well determined by cell counting. Cells were allowed to settle and attach for 24 h before the addition of peptides. The supernatant in each well was discarded, and the attached cells were washed using serum-free DMEM twice. One group of cells was exposed to UVA under a UV lamp for 1 h. A second group of cells was not exposed to UV irradiation. The supernatant was removed from each well of both groups and replaced with peptide (100 μL, 0.0325 mmolL^−1), which was then dissolved in Fluorobite^TM DMEM. Each plate, including 2 wells of both groups was also incubated with serum-free DMEM (positive control) and 2% Triton-X (negative control) for 24 h. The supernatant in each well of both groups was then discarded and the cells washed using PBS. MTT (100 μL, 6 mmolL^−1) that was dissolved in HBSS was then added to each well and incubated for 2 h for MTT conversion into formazan. The supernatant was then discarded, and the cells were washed using PBS to remove any residual MTT and formazan that were not attached to the cellular mitochondria. Formazan was dissolved in DMSO (50 μL), and the absorbance was measured on a microplate reader at a wavelength of 570 nm.

[3] = test system: glutathione S-transferase (GST); experiment: Glutathione S-transferase assay (CDNB conjugation, absorbance 340 nm); format: biochemical, equine; settings: for GST Activity > 50%: yes/no, compared to GSH, more than 50% considered retaining GST activity
Procedure: The degree of conjugation of GSH or novel compounds to a substrate catalysed by GST can be monitored […] by conjugation with the substrate 1-chloro-2,4-dinotrobenzene (CDNB) to a thiol group. Successful conjugation results in the formation of a S-DNB conjugate, which strongly absorbs at 340 nm.
A stock solution of GSH and novel compounds (0.0315 mmolL^−1) were prepared. GSH or novel compounds (26 µL) were added to a mixture of pH = 7.4 DPBS (170 µL), CDNB (2 µL, 100 mmolL^−1), and GST enzyme (2 µL, 25 UmL^−1) to initiate the reaction. The rate of increase in absorbance at 340 nm was monitored every minute over a 10 min period. The rate of increase in absorbance at 340 nm was calculated by the following equation (Equation (1)), where ΔA340 is the change in absorption at 340 nm per minute:(1) ΔA340=A340(final)–A340(initial)/t.
The rate of increase in absorption at 340 nm was correlated to the specific activity of GST using the following equation (Equation (2)):(2) ΔA340×V/εmM ×Venz=Specific activity of GST, where the extinction coefficient εmM for a 96-well plate of a path length of 0.5 cm is 5.3 mmolL^−1cm^−1; Venz is the volume of the GST enzyme sample used (2 µL); and V is the total volume used ([…]). […] A GST activity more than 50% was considered as retaining GST activity.

[4] = test system: γ-glutamyl transferase (GGT); format: in vitro ADME, equine; settings: horse, 100 μgmL^−1, pH 9
Procedure: Each compound and GSH (100 μgmL^−1, 0.0315 molL^−1) was added to each reaction vessel containing phosphate buffer solution (800 μL, pH 9.0). The reaction vessels were incubated at 37 °C with shaking for the entire duration of the experiment. Reaction was initiated by the addition of GGT enzyme solution (100 μL, 10 UmL^−1). […] The degradation rate of the novel compounds analysed by HPLC were compared with that of GSH. […] A GGT degradation less than 50% was considered resistance to GTT activity.

[5] = background statement in abstract, ref not given; cited from earlier work
[6] = cited from earlier work
physchem = experiment: physchem
Procedure: To investigate the potential peptide degradation during storage and when in a cell culture medium, the stability of GSH in NaOH (0.1 molL^−1, pH 13.0), HBSS (pH 7.4), and HCl (0.1 molL^−1, pH 1.0) were investigated. GSH (100 μgmL^−1) was incubated at 37 °C with the above conditions for 24 h or until at least 20% of peptide was degraded. The samples were withdrawn at the time intervals 0, 1, 10, 30, 60, 120, 240, 480, and 1440 min and mixed with equal volume of ice-cold HCl (0.2 molL^−1) until analysis by HPLC. Stability was repeated until three results within <5% SD were obtained.

| SMILES | fold increase in oral bioavailability compared to native GSH ([1]; Sprague Dawley rats) [fold] | fold increase in plasma t½ compared to native GSH ([1]; Sprague Dawley rats) [fold] | AUC ([1]; IV) [ng·h/mL] | AUC ([1]; oral) [ng·h/mL] | bioavailability [1] [%] | half-life ([1]; Sprague Dawley rats) [min] | viability at 24 h, 0.0325 mmolL^−1 [2] [%] | activity/efficacy with GST enzyme (in words) ([3]; qualitative analysis) | GST Activity > 50% [3] | % Degradation by GGT [4] [%] | oral bioavailability [5] | water solubility [6] [mg/mL] | half-life at 100 μgmL^−1 (physchem; HBSS buffer, pH 7.4) [min] | half-life at 100 μgmL^−1 (physchem; aqueous HCl solution, pH 2) [min] | half-life at 100 μgmL^−1 (physchem; aqueous NaOH solution, pH 12) [min] |
| --- | --- | --- | --- | --- | --- | --- | --- | --- | --- | --- | --- | --- | --- | --- | --- |
| CN(C(=O)CC[C@H](N)C(=O)O)[C@@H](CS)C(=O)NCC(=O)O [Compound 1.70] | 16.1 | 16.8 | 727 ± 42 | 82 ± 8 | 11.3 ± 1.2 | 33.6 | 108 ± 9.4 | did not | ✔ (✔: yes) | 11.7 |  |  |  |  |  |
| N[C@@H](CCC(=O)N[C@@H](CS)C(=O)NCC(=O)O)C(=O)O [GSH, Glutathione] |  |  | 5350 ± 2480 | 36 ± 8 | 0.7 ± 0.1 | 2 |  |  | ✔ (✔: yes) |  | below 1% | 292.5 (≈ 952 mM) | 2780 ± 138 | 12200 ± 606 | 150 ± 6 |
